In patent publication EP4603105A1, “PHARMACEUTICAL COMPOSITION CONTAINING CYCLIC COMPOUND HAVING SELECTIVE KRAS INHIBITORY EFFECT AGAINST HRAS AND NRAS” (CHUGAI SEIYAKU KABUSHIKI KAISHA, priority 2022, dated 2024):
Where two headings read alike, the source gives them in different places.

Tests used:
[1] = target: GDP-bound KRAS wild-type protein (Homo sapiens, UniProt P01116); experiment: Binding to KRAS by surface plasmon resonance (SPR), dissociation constant KD
Procedure, shortened: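 Read-out is KD from 1:1 fitting of single-cycle kinetics sensorgrams, blank-cycle and reference-surface corrected. Proteins were GDP-loaded, biotinylated Avi-fusions freshly captured each cycle at roughly 100–300 RU. Runs were at 30°C in HBS pH 7.4 with MgCl2, GDP and 4% DMSO.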

[2] = tested on: human lung cancer strain NCI-H441; experiment: NCI-H441 cell proliferation inhibitory activity (CellTiter-Glo, 4 days); format: cell-based; conditions: read-out: NCl-H441 IC50
Procedure, shortened: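 Readout: […] after the ATP-based reagent. Compound: serial dilutions in dimethyl sulfoxide.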

HRAS wild-type protein = HRAS wild-type protein (Homo sapiens, UniProt P01112); experiment: Binding to HRAS by surface plasmon resonance (SPR), KD and KD ratio to KRAS
Sequence of HRAS wild-type protein (P01112 whole entry): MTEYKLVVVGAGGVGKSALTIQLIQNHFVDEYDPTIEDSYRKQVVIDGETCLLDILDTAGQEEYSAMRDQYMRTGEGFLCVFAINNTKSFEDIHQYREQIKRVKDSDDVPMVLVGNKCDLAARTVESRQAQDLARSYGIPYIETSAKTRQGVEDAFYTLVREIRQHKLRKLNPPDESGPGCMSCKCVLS
Procedure, shortened: (§1)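 GDP-loaded biotinylated Avi-tag RAS proteins (E. coli-expressed) captured on a Biotin CAPture chip at ~100–300 RU; single-cycle kinetics at 30°C, 100 µL/min, 75 s injections of rising compound concentrations. HBS pH 7.4 running buffer with 1 mM DTT, 10 mM MgCl2, 10 µM GDP, 4% DMSO. KD from 1:1 binding fit.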

[3] = target: GDP-bound NRAS wild-type protein (Homo sapiens, UniProt P01111); experiment: Binding to NRAS by surface plasmon resonance (SPR), KD and KD ratio to KRAS
Sequence of GDP-bound NRAS wild-type protein (P01111 whole entry): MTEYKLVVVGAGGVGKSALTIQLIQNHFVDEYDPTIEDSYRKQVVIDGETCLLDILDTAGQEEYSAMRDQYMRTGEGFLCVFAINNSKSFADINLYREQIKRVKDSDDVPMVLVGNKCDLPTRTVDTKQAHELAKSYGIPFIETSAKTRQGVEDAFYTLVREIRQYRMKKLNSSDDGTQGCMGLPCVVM
Procedure, shortened: as §1

[4] = Single Cycle Kinetics, 1:1 binding model
[5] = 50% proliferation inhibitory concentration, four days
[6] = ratio of KD with respect to HRAS wild-type protein to KD with respect to KRAS
[7] = ratio of KD with respect to GDP-bound NRAS wild-type protein to KD with respect to KRAS
[8] = ratio of KD for HRAS wild-type protein to KD for KRAS
[9] = ratio of KD for GDP-bound NRAS wild-type protein to KD for KRAS

Sequence of GDP-bound KRAS wild-type protein (P01116 1-188 isoform P01116-2): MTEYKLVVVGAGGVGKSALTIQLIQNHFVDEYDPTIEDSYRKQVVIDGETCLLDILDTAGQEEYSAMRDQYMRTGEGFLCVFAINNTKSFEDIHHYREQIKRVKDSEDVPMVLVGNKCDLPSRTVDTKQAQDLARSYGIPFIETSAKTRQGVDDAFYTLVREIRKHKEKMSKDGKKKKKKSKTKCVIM

| SMILES | Kd [1, 4] [nM] | IC50 [2, 5] [nM] | HRAS /KRAS (HRAS wild-type protein; [6]) | NRAS /KRAS [3, 7] | Kd ([1]; 1:1 binding model) [nM] | IC50 ([2]; NCI-H441 cells, 4 days) [nM] | HRAS /KRAS (HRAS wild-type protein; [8]) | NRAS /KRAS [3, 9] | Kd ([1]; Single Cycle Kinetics) [nM] |
| --- | --- | --- | --- | --- | --- | --- | --- | --- | --- |
| CCO[C@@H]1C[C@H]2C(=O)NC3(CCC3)C(=O)N(C)[C@@H](C(CC)CC)C(=O)N(C)[C@H](C(=O)N(C)C)CC(=O)N(C)[C@@H](CC)C(=O)N[C@@H]([C@@H](C)CC)C(=O)N(C)CC(=O)N(C)[C@H]3C/C=C\CCN(C3=O)[C@@H](Cc3ccc(C(F)(F)F)cc3)C(=O)N(C)CC(=O)N[C@@H](CCc3cc(F)c(Cl)c(F)c3)C(=O)N2C1 [PP1230] | 0.77 | 110 | A (a compound having 10 or more and less than 20 is denoted as A) | A (a compound having 10 or more and less than 20 is denoted as A) |  |  |  |  |  |
| CCCOC[C@H]1C(=O)N[C@@H]([C@@H](C)CC)C(=O)N(C)CC(=O)N(C)[C@H]2C/C=C\CCN(C2=O)[C@@H](Cc2ccc(C)cc2)C(=O)N(C)CC(=O)N[C@@H](CCc2ccc(C(F)(F)F)c(Cl)c2)C(=O)N2C[C@@H](C)C[C@H]2C(=O)NC2(CC(C)(C)C2)C(=O)N(C)[C@@H](C2CCCC2)C(=O)N(C)[C@H](C(=O)N(C)CC)CC(=O)N1C [PP2467] |  |  |  |  | 0.26 | 21.8 | B (a compound having 3 or more and less than 10 is denoted as B) | A (a compound having 10 or more and less than 20 is denoted as A) |  |
| CCCO[C@@H]1C[C@H]2C(=O)NC3(CC(C)(C)C3)C(=O)N(C)[C@@H](C3CCCC3)C(=O)N(C)[C@H](C(=O)N(C)CC)CC(=O)N(C)[C@@H](COCC)C(=O)N[C@@H]([C@@H](C)CC)C(=O)N3C[C@@H](F)C[C@H]3C(=O)N(C)[C@H]3C/C=C\CCN(C3=O)[C@@H](Cc3ccc(C(F)(F)F)cc3)C(=O)N(C)CC(=O)N[C@@H](CCc3ccc(C(F)(F)F)c(Cl)c3)C(=O)N2C1 [PP3409] |  |  |  |  |  | 21 | A (a compound having 10 or more and less than 20 is denoted as A) | A (a compound having 10 or more and less than 20 is denoted as A) | 0.55 |
| CC[C@H](C)[C@@H]1NC(=O)[C@H](COC)N(C)C(=O)C[C@@H](C(=O)N(C)C)N(C)C(=O)[C@H](C2CCCC2)N(C)C(=O)C2(CC(C)(C)C2)NC(=O)[C@@H]2C[C@@H](OC(C)C)CN2C(=O)[C@H](CCc2ccc(Cl)c(Cl)c2)NC(=O)CN(C)C(=O)[C@H](CC2CCCCC2)N2CC/C=C\C[C@@H](C2=O)N(C)C(=O)CN(C2CC2)C1=O [PP2513] |  |  |  |  | 2.6 | 303 | A (a compound having 10 or more and less than 20 is denoted as A) | A (a compound having 10 or more and less than 20 is denoted as A) |  |
| CCO[C@@H]1C[C@H]2C(=O)NC3(CC(C)(C)C3)C(=O)N(C)[C@@H](C3CCCC3)C(=O)N(C)[C@H](C(=O)N(C)CC)CC(=O)N(C)[C@@H]([C@@H](C)OC)C(=O)N[C@@H]([C@@H](C)CC)C(=O)N3CCC[C@H]3C(=O)N(C)[C@H]3C/C=C\CCN(C3=O)[C@@H](Cc3ccc(C(F)(F)F)cc3)C(=O)N(C)CC(=O)N[C@@H](CCc3ccc(C(F)(F)F)c(OC)c3)C(=O)N2C1 [PP3170] |  |  |  |  |  | 42.5 | A (a compound having 10 or more and less than 20 is denoted as A) | A (a compound having 10 or more and less than 20 is denoted as A) | 0.84 |
| CCCC[C@H]1C(=O)N[C@@H]([C@@H](C)CC)C(=O)N2CCC[C@H]2C(=O)N(C)[C@H]2C/C=C\CCN(C2=O)[C@@H](Cc2ccc(C)cc2)C(=O)N(C)CC(=O)N[C@@H](CCc2ccc(C(F)(F)F)c(OC)c2)C(=O)N2C[C@H](OCC)C[C@H]2C(=O)OC2(CCC2)C(=O)N(C)[C@@H](C2CCCC2)C(=O)N(C)[C@H](C(=O)N(C)C)CC(=O)N1C [PP3383] |  |  |  |  |  | 17.5 | A (a compound having 10 or more and less than 20 is denoted as A) | A (a compound having 10 or more and less than 20 is denoted as A) | 0.74 |
| CCCO[C@@H]1C[C@H]2C(=O)NC3(CC(C)(C)C3)C(=O)N(C)[C@@H](C3CCCC3)C(=O)N(C)[C@H](C(=O)N(C)CC)CC(=O)N(C)[C@@H](COCC)C(=O)N[C@@H]([C@@H](C)CC)C(=O)N3C[C@@H](F)C[C@H]3C(=O)N(C)[C@H]3C/C=C\CCN(C3=O)[C@@H](Cc3ccc(C)cc3)C(=O)N(C)CC(=O)N[C@@H](CCc3cc(F)c(C(F)(F)F)c(F)c3)C(=O)N2C1 [PP3461] |  |  |  |  |  | 19.1 | A (a compound having 10 or more and less than 20 is denoted as A) | A (a compound having 10 or more and less than 20 is denoted as A) | 0.35 |
| CCC[C@H]1C(=O)N[C@@H]([C@@H](C)CC)C(=O)N2CCCC[C@H]2C(=O)N(C)[C@H]2C/C=C\CCN(C2=O)[C@@H](Cc2ccc(C)cc2)C(=O)N(C)CC(=O)N[C@@H](CCc2ccc(C(F)(F)F)c(OC)c2)C(=O)N2C[C@H](OCC)C[C@H]2C(=O)N(C)C2(CCC2)C(=O)N(C)[C@@H](C2CCCC2)C(=O)N(C)[C@H](C(=O)N(C)C)CC(=O)N1C [PP3273] |  |  |  |  |  | 34 | B (a compound having 3 or more and less than 10 is denoted as B) | A (a compound having 10 or more and less than 20 is denoted as A) | 0.5 |
| CCC[C@H]1C(=O)N[C@@H](C2CCCC2)C(=O)N(C)CC(=O)N(C)[C@H]2C/C=C\CCN(C2=O)[C@@H](Cc2ccc(C)cc2)C(=O)N(C)CC(=O)N[C@@H](CCc2ccc(C(F)(F)F)c(OC)c2)C(=O)N2CC3(CC3)C[C@H]2C(=O)N(C)C2(CCC2)C(=O)N(C)[C@@H](CC(C)(C)C)C(=O)N(C)[C@H](C(=O)N(C)C)CC(=O)N1C [PP3320] |  |  |  |  |  | 4.6 | B (a compound having 3 or more and less than 10 is denoted as B) | B (a compound having 3 or more and less than 10 is denoted as B) | 0.037 |
| CCO[C@@H]1C[C@H]2C(=O)NC3(CCC3)C(=O)N(C)[C@@H](C3CCCC3)C(=O)N(C)[C@H](C(=O)N(C)C)CC(=O)N(C)[C@@H](CC3CC3)C(=O)N[C@@H]([C@@H](C)CC)C(=O)N(C)CC(=O)N(C)[C@H]3C/C=C\CCN(C3=O)[C@@H](Cc3ccc(C)cc3)C(=O)N(C)CC(=O)N[C@@H](CCc3ccc(Cl)c(Cl)c3)C(=O)N2C1 [PP1485] | 0.28 | 30.5 | A (a compound having 10 or more and less than 20 is denoted as A) | A (a compound having 10 or more and less than 20 is denoted as A) |  |  |  |  |  |
| C#CC[C@H]1C(=O)N[C@@H]([C@@H](C)CC)C(=O)N(C)CC(=O)N(C)[C@H]2C/C=C\CCN(C2=O)[C@@H](Cc2ccc(C(F)(F)F)cc2)C(=O)N(C)CC(=O)N[C@@H](CCc2ccc(C(F)(F)F)c(OC)c2)C(=O)N2C[C@H](OCC)C[C@H]2C(=O)OC2(CCC2)C(=O)N(C)[C@@H](C2CCCC2)C(=O)N(C)[C@H](C(=O)N(C)C)CC(=O)N1C [PP3373] |  |  |  |  |  | 12.5 | A (a compound having 10 or more and less than 20 is denoted as A) | A (a compound having 10 or more and less than 20 is denoted as A) | 0.21 |
| CCO[C@@H]1C[C@H]2C(=O)NC3(CCC3)C(=O)N(C)[C@@H](C(CC)CC)C(=O)N(C)[C@H](C(=O)N(C)C)CC(=O)N(C)[C@@H](CC3CCCC3)C(=O)N[C@@H]([C@@H](C)CC)C(=O)N(C)CC(=O)N(C)[C@H]3C/C=C\CCN(C3=O)[C@@H](Cc3ccc(C(F)(F)F)cc3)C(=O)N(C)CC(=O)N[C@@H](CCc3ccc(C(F)(F)F)c(OC)c3)C(=O)N2C1 [PP1212] | 0.28 | 35.6 | A (a compound having 10 or more and less than 20 is denoted as A) | AA (a compound having 20 or more is denoted as AA) |  |  |  |  |  |
| CCCOC[C@H]1C(=O)N[C@@H]([C@@H](C)CC)C(=O)N(C)CC(=O)N(C)[C@H]2C/C=C\CCN(C2=O)[C@@H](Cc2ccc(C)cc2)C(=O)N(C)CC(=O)N[C@@H](CCc2ccc(C(F)(F)F)c(OC)c2)C(=O)N2C[C@@H](C)C[C@H]2C(=O)NC2(CC(C)(C)C2)C(=O)N(C)[C@@H](C2CCCC2)C(=O)N(C)[C@H](C(=O)N(C)CC)CC(=O)N1C [PP2461] |  |  |  |  | 0.15 | 10.6 | A (a compound having 10 or more and less than 20 is denoted as A) | A (a compound having 10 or more and less than 20 is denoted as A) |  |
| CCO[C@@H]1C[C@H]2C(=O)OC3(CCC3)C(=O)N(C)[C@@H](C3CCCC3)C(=O)N(C)[C@H](C(=O)N(C)C)CC(=O)N(C)[C@@H]([C@H](C)OC)C(=O)N[C@@H]([C@@H](C)CC)C(=O)N(C)CC(=O)N(C)[C@H]3C/C=C\CCN(C3=O)[C@@H](Cc3ccc(C)cc3)C(=O)N(C)CC(=O)N[C@@H](CCc3ccc(C(F)(F)F)c(OC)c3)C(=O)N2C1 [PP3397] |  |  |  |  |  | 4.3 | B (a compound having 3 or more and less than 10 is denoted as B) | A (a compound having 10 or more and less than 20 is denoted as A) | 0.28 |
